Laboratory results published in patent US20240182445A1 (ONO PHARMACEUTICAL CO., LTD., priority 2019, published 2024).

Biological target: T1, human TREK-1 (Homo sapiens, UniProt O95069)
T1 construct: expressed in transfected cells
T1 sequence (O95069 1-426): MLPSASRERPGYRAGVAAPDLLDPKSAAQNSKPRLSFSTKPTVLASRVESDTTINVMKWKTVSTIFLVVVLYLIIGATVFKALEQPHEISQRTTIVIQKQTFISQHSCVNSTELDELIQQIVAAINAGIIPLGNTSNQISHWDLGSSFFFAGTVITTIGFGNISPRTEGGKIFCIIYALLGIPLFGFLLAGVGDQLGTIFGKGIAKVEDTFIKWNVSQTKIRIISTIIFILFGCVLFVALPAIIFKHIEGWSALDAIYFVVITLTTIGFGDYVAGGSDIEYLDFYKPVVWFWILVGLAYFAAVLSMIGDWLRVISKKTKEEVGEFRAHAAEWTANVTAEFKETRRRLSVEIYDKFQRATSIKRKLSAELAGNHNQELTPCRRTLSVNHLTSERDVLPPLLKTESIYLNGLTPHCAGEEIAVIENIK
Test: TREK-1 Thallium (Tl+) flux assay, Method 1
Type: cell-based
Settings: TREK-1 Thallium (Tl+) flux assay, Method 1
In short: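 Readout: Thallos fluorescence ratio, taken 25 s post-thallium relative to the pre-thallium baseline average, then converted to % inhibition. Cells were CHO-K1 stably expressing human TREK-1, dye-loaded and exposed to test compound (vehicle 0.3% DMSO) for 10 min prior to thallium stimulation.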

SMILES	IC50 [nM]
Cc1cc(OCc2ccccc2)ccc1NC(=O)c1c(Cl)cnn1C1CCN(C(=O)C(C)(C)C)CC1 [Compound 405, N-(4-(benzyloxy)-2-methylphenyl)-4-chloro-1-(1-pivaloylpiperidin-4-yl)-1H-pyrazole-5-carboxamide]	2310
CC(=O)N1CCC(n2ncc(Cl)c2C(=O)Nc2ncc(-c3ccc(CC(C)C)cc3)cc2C)CC1 [Compound 418, 1-(1-acetylpiperidin-4-yl)-4-chloro-N-(5-(4-isobutylphenyl)-3-methylpyridin-2-yl)-1H-pyrazole-5-carboxamide]	4170
COc1ncc(-c2cnc(NC(=O)c3c(Cl)cnn3C3CCN(C(C)=O)CC3)c(C)c2)cc1Cl [Compound 425, 1-(1-acetylpiperidin-4-yl)-4-chloro-N-(5′-chloro-6′-methoxy-5-methyl-[3,3′-bipyridin]-6-yl)-1H-pyrazole-5-carboxamide]	5050
Cc1cc(-c2cnn(-c3ccccc3)c2)cnc1NC(=O)c1c(Cl)cnn1C1CCN(C(=O)OC(C)(C)C)CC1 [Compound 413, tert-butyl 4-(4-chloro-5-((3-methyl-5-(1-phenyl-1H-pyrazol-4-yl)pyridin-2-yl)carbamoyl)-1H-pyrazol-1-yl)piperidine-1-carboxylate]	3530

Same assay, conditions: TREK-1 Thallium (Tl+) flux assay; no *^12 (Method 2) mark on these rows

SMILES	IC50 [nM]
Cc1cc(C#Cc2ccccc2)cnc1NC(=O)c1c(Cl)cnn1C(C)CNC(=O)OC(C)(C)C (stereo not shown) [Compound 239, tert-butyl (2-(4-chloro-5-((3-methyl-5-(phenylethynyl)pyridin-2-yl)carbamoyl)-1H-pyrazol-1-yl)propyl)carbamate]	370
CC(=O)N1CC[C@@H](Cn2ncc(Cl)c2C(=O)Nc2ncc(C#Cc3ccccc3)cc2C)[C@H](F)C1 [Compound 208, 1-(((3S,4S)-1-acetyl-3-fluoropiperidin-4-yl)methyl)-4-chloro-N-(3-methyl-5-(phenylethynyl)pyridin-2-yl)-1H-pyrazole-5-carboxamide]	310
CC(C)(C)OC(=O)N1CC(n2ncc(Cl)c2C(=O)Nc2ncc(C#Cc3ccccc3)cc2F)C1 [Compound 243, tert-butyl 3-(4-chloro-5-((3-fluoro-5-(phenylethynyl)pyridin-2-yl)carbamoyl)-1H-pyrazol-1-yl)azetidine-1-carboxylate]	380
Cc1cc(C#Cc2ccccc2)cnc1NC(=O)c1c(Cl)cnn1C[C@@H]1CCN(C(=O)C(C)C)C[C@H]1F [Compound 222, 4-chloro-1-(((3S,4S)-3-fluoro-1-isobutyrylpiperidin-4-yl)methyl)-N-(3-methyl-5-(phenylethynyl)pyridin-2-yl)-1H-pyrazole-5-carboxamide]	340
N#CCCCn1ncc(Cl)c1C(=O)Nc1c(F)cc(C#Cc2ccccc2)cc1F [Compound 253, 4-chloro-1-(3-cyanopropyl)-N-(2,6-difluoro-4-(phenylethynyl)phenyl)-1H-pyrazole-5-carboxamide]	410
Cc1cc(C#Cc2ccc(F)cc2)cnc1NC(=O)c1c(Cl)cnn1C1CCN(C(=O)CC(C)C)C1 (stereo not shown) [Compound 258, 4-chloro-N-(5-((4-fluorophenyl)ethynyl)-3-methylpyridin-2-yl)-1-(1-(3-methylbutanoyl)pyrrolidin-3-yl)-1H-pyrazole-5-carboxamide]	420
Cc1cc(OCc2ccccc2)ccc1NC(=O)c1c(Cl)cnn1[C@H]1CC[C@@H](NC(=O)CC(C)C)CC1 [Compound 382, N-(4-(benzyloxy)-2-methylphenyl)-4-chloro-1-(cis-4-(3-methylbutanamido)cyclohexyl)-1H-pyrazole-5-carboxamide]	610
Cc1cc(C#Cc2ccc(F)cc2)cnc1NC(=O)c1c(Cl)cnn1CC1CN(C(=O)C2CCC2)CCO1 (stereo not shown) [Compound 367, 4-chloro-1-((4-(cyclobutanecarbonyl)morpholin-2-yl)methyl)-N-(5-((4-fluorophenyl)ethynyl)-3-methylpyridin-2-yl)-1H-pyrazole-5-carboxamide]	940
CO[C@@H](C)Cn1ncc(Cl)c1C(=O)Nc1ncc(C#Cc2ccccc2)cc1C [Compound 218, (S)-4-chloro-1-(2-methoxypropyl)-N-(3-methyl-5-(phenylethynyl)pyridin-2-yl)-1H-pyrazole-5-carboxamide]	340
CCC(=O)N1CCOC(Cn2ncc(Cl)c2C(=O)Nc2ncc(C#Cc3ccc(F)cc3)cc2C)C1 (stereo not shown) [Compound 347, 4-chloro-N-(5-((4-fluorophenyl)ethynyl)-3-methylpyridin-2-yl)-1-((4-propionylmorpholin-2-yl)methyl)-1H-pyrazole-5-carboxamide]	770
Cc1cc(C#Cc2ccc(F)cc2)cnc1NC(=O)c1c(Cl)cnn1CC1(F)CCN(C(=O)C2CC2C)CC1 (stereo not shown) [Compound 348, 4-chloro-1-((4-fluoro-1-(2-methylcyclopropane-1-carbonyl)piperidin-4-yl)methyl)-N-(5-((4-fluorophenyl)ethynyl)-3-methylpyridin-2-yl)-1H-pyrazole-5-carboxamide]	780

Same assay, conditions: TREK-1 Thallium (Tl+) flux assay; values without footnote *12 are Method 1

SMILES	IC50 [nM]
CC(=O)N1CC2(CC(n3ncc(Cl)c3C(=O)Nc3ncc(C#Cc4ccccc4)cc3C)C2)C1 [Compound 173, 1-(2-acetyl-2-azaspiro[3.3]heptan-6-yl)-4-chloro-N-(3-methyl-5-(phenylethynyl)pyridin-2-yl)-1H-pyrazole-5-carboxamide]	270
Cc1cc(C#Cc2ccccc2)cnc1NC(=O)c1c(Cl)cnn1C(C)C1CCN(C(=O)C(C)C)CC1 (stereo not shown) [Compound 28, 4-chloro-1-(1-(1-isobutyrylpiperidin-4-yl)ethyl)-N-(3-methyl-5-(phenylethynyl)pyridin-2-yl)-1H-pyrazole-5-carboxamide]	90
Cc1cc(C#Cc2ccccc2)cnc1NC(=O)c1c(Cl)cnn1C(C)C1CCN(C(=O)OC(C)(C)C)CC1 (stereo not shown) [Compound 77, tert-butyl 4-(1-(4-chloro-5-((3-methyl-5-(phenylethynyl)pyridin-2-yl)carbamoyl)-1H-pyrazol-1-yl)ethyl)piperidine-1-carboxylate]	160
CCNC(=O)N1C[C@H]2C[C@H](n3ncc(Cl)c3C(=O)Nc3ncc(C#Cc4cccc(F)c4)cc3C)C[C@H]2C1 [Compound 132, (3aR,5s,6aS)-5-[4-chloro-5-({5-[(3-fluorophenyl)ethynyl]-3-methylpyridin-2-yl}carbamoyl)-1H-pyrazol-1-yl]-N-ethylhexahydrocyclopenta[c]pyrrole-2(1H)-carboxamide]	220
O=C(Nc1ncc(C#Cc2ccccc2)cc1F)c1c(Cl)cnn1CC1CCN(C(=O)C2CC2)C1 (stereo not shown) [Compound 43, 4-chloro-1-((1-(cyclopropanecarbonyl)pyrrolidin-3-yl)methyl)-N-(3-fluoro-5-(phenylethynyl)pyridin-2-yl)-1H-pyrazole-5-carboxamide]	130
Cc1cc(C#Cc2ccccc2)cnc1NC(=O)c1c(Cl)cnn1CCCC#N [Compound 167, 4-chloro-1-(3-cyanopropyl)-N-(3-methyl-5-(phenylethynyl)pyridin-2-yl)-1H-pyrazole-5-carboxamide]	270
CC(=O)N[C@H]1CC[C@H](n2ncc(Cl)c2C(=O)Nc2ncc(C#Cc3ccc(F)cc3)cc2C)CC1 [Compound 193, 1-(trans-4-acetamidocyclohexyl)-4-chloro-N-(5-((4-fluorophenyl)ethynyl)-3-methylpyridin-2-yl)-1H-pyrazole-5-carboxamide]	290
O=C(Nc1ncc(C#Cc2ccccc2)cc1F)c1c(Cl)cnn1C[C@H]1CCOC1 [Compound 60, (R)-4-chloro-N-(3-fluoro-5-(phenylethynyl)pyridin-2-yl)-1-((tetrahydrofuran-3-yl)methyl)-1H-pyrazole-5-carboxamide]	150
CC(C)C(=O)N1CCC(n2ncc(Cl)c2C(=O)Nc2ncc(C#Cc3cccs3)cc2F)CC1 [Compound 175, 4-chloro-N-(3-fluoro-5-(thiophen-2-ylethynyl)pyridin-2-yl)-1-(1-isobutyrylpiperidin-4-yl)-1H-pyrazole-5-carboxamide]	270
Cc1cc(C#Cc2ccccc2)cnc1NC(=O)c1c(Cl)cnn1C[C@@H]1CCOC1 [Compound 160, (S)-4-chloro-N-(3-methyl-5-(phenylethynyl)pyridin-2-yl)-1-((tetrahydrofuran-3-yl)methyl)-1H-pyrazole-5-carboxamide]	260
Cc1cc(C#Cc2cccs2)cnc1NC(=O)c1c(Cl)cnn1CC1CCN(C(=O)C2COCCO2)CC1 (stereo not shown) [Compound 103, 1-((1-(1,4-dioxane-2-carbonyl)piperidin-4-yl)methyl)-4-chloro-N-(3-methyl-5-(thiophen-2-ylethynyl)pyridin-2-yl)-1H-pyrazole-5-carboxamide]	190
CC(=O)N1CCOC(Cn2ncc(Cl)c2C(=O)Nc2ncc(C#Cc3ccccc3)cc2F)C1 (stereo not shown) [Compound 27, 1-((4-acetylmorpholin-2-yl)methyl)-4-chloro-N-(3-fluoro-5-(phenylethynyl)pyridin-2-yl)-1H-pyrazole-5-carboxamide]	90

Same assay, conditions: read-out: Tl^+ Assay % inhibition at 30 uM (Minus value indicates activation of TREK-1); at 30 uM; CHO-K1 cells stably expressing human TREK-1; minus = activation

SMILES	inhibition at 30 µM [%]
O=C(Nc1ncc(C#Cc2cccs2)cc1F)c1nn(CCC2CCN(C(=O)C3CC3)CC2)cc1Cl [Compound 452, 4-chloro-1-(2-(1-(cyclopropanecarbonyl)piperidin-4-yl)ethyl)-N-(3-fluoro-5-(thiophen-2-ylethynyl)pyridin-2-yl)-1H-pyrazole-3-carboxamide]	-62
